From patent US8592181B2, “Brazzein variant having higher sweetness and method for preparing multi-variant” (Chung-Ang University Industry-Academy Cooperation Foundation, priority 2009, dated 2013)
Where no end group is shown, it is not given here.

What was measured:
human sense of taste = test: Sweetness measured by human sense of taste (20 trained subjects, minimum concentration at which sweetness is first sensed); format: in vivo; details: for Multiples of increased sweetness to minor-type brazzein: relative to minor-type brazzein; for Minimum stimulation level in which one senses sweetness for first time: 20 trained subjects; for Sweetness ratios of sucrose (1 g/100 ml) to primary brazzein variants (minor-type brazzein: 2000) / Sweetness ratios of sucrose (1 g/100 ml) to brazzein multi-variants: relative to 1 g/100 ml sucrose threshold
Procedure: Since the recombinant brazzein according to the present invention is not a sucrose-based compound having a cyclic ring, the sweetness of the recombinant brazzein was not measured using a saccharometer. Therefore, the activity of the recombinant brazzein was measured using the human sense of taste. Sugar content measurement was performed on 20 subjects who were trained to feel substantially the same minimum concentration of sucrose in which they could sense sweetness using a sucrose solution. That is, a concentration of each brazzein variant in which the subjects could sense sweetness for the first time was measured. Also, a sweetness ratio of the sucrose solution to the wild-type brazzein was 1 g/100 ml, which was a minimum stimulation level in which the subjects could sense sweetness. Also, a sweetness ratio of the minor-type brazzein protein to the wild-type brazzein was 500 μg/100 ml, which was a minimum stimulation level in which the subjects could sense sweetness. Therefore, the sweetness was calculated using the sweetness ratios (That is, 1/0.0005=2000 for the minor-type brazzein).
Also, the brazzein multi-variants were measured for activity (sweetness) in the same manner as in Example 3-1.

[1] = Thermal stability: heated at 80° C. for 4 hours in 50 mM Tris-HCl (pH 8.0), sweetness change level measured by the 20 subjects; format: physicochemical; details: primary variants
Procedure: On the basis of the results measured in Example 3-1, 100 mg of each of the brazzein variants having high sweetness, that is, brazzein(H30K) set forth in SEQ ID NO: 99, brazzein(H30R) set forth in SEQ ID NO: 100, brazzein(E35D) set forth in SEQ ID NO: 109, brazzein(E40A) set forth in SEQ ID NO: 113, brazzein(E40A) set forth in SEQ ID NO: 113, brazzein(E40D) set forth in SEQ ID NO: 114, brazzein(E40K) set forth in SEQ ID NO: 115, brazzein(E40H) set forth in SEQ ID NO: 116 and brazzein(E40R) set forth in SEQ ID NO: 117, was dissolved in a 50 mM Tris-HCl (pH 8.0) solution, and heated at 80° C. for 4 hours. Based on the sweetness measured before the heat treatment of the respective primary brazzein variants, a sweetness change level of each primary brazzein variant was then measured by the 20 subjects in the same manner as in Example 3-1.
Also, the brazzein multi-variants were measured for thermal stability in the same manner as in Example 3-2. […] From the high performance liquid chromatography analysis of the quaternary variants out of the brazzein multi-variants, it was confirmed that the quaternary variants maintained their constant thermal stability in spite of the fact that the quaternary variants had different structural properties than the minor-type brazzein protein.

[2] = cited from earlier work; for Thermal stability: related art
sweetness = details: cited from earlier work; for Sweetness relative to sugar (sucrose): related art

Molecule	Multiples of increased sweetness to minor-type brazzein (human sense of taste; primary brazzein variants)	Minimum stimulation level in which one senses sweetness for first time (human sense of taste; primary brazzein variants)	Sweetness ratios of sucrose (1 g/100 ml) to primary brazzein variants (minor-type brazzein: 2000) (human sense of taste)	Thermal stability (relative activity after heat treatment) [1]	also measured
E35D: primary brazzein variant: Glu at position 35 of minor-type brazzein substituted with Asp (DKCKKVYENYPVSKCQLANQCNYDCKLRKHARSGDCFYDEKRNLQCICDYCEY; Brazzein(E35D)) [Brazzein E35D]	3.3	150 μg/100 ml	6,600	maintained their thermal stabilities	
E40A: primary brazzein variant: Glu at position 40 of minor-type brazzein substituted with Ala (DKCKKVYENYPVSKCQLANQCNYDCKLRKHARSGECFYDAKRNLQCICDYCEY; Brazzein(E40A)) [Brazzein E40A]	3.3	150 μg/100 ml	6,600	maintained their thermal stabilities	
E40D: primary brazzein variant: Glu at position 40 of minor-type brazzein substituted with Asp (DKCKKVYENYPVSKCQLANQCNYDCKLRKHARSGECFYDDKRNLQCICDYCEY; Brazzein(E40D)) [Brazzein E40D]		150 μg/100 ml	6,600	maintained their thermal stabilities	
Brazzein: sweetener protein extracted from the fruit of Pentadiplandra brazzeana (Baillon) (QDKCKKVYENYPVSKCQLANQCNYDCKLDKHARSGECFYDEKRNLQCICDYCEY; UniProt P56552 1-54, looked up)					Solubility and pH stability in water ([2]; Gao et al. 1999): very high; Thermal stability [2]: very high
Monellin					Sweetness relative to sugar (sucrose) (sweetness): 3,000 times; Thermal stability [2]: low
E40R: primary brazzein variant: Glu at position 40 of minor-type brazzein substituted with Arg (DKCKKVYENYPVSKCQLANQCNYDCKLRKHARSGECFYDRKRNLQCICDYCEY; Brazzein(E40R)) [Brazzein E40R]	2	250 μg/100 ml	4,000	maintained their thermal stabilities	
E40K: primary brazzein variant: Glu at position 40 of minor-type brazzein substituted with Lys (DKCKKVYENYPVSKCQLANQCNYDCKLRKHARSGECFYDKKRNLQCICDYCEY; Brazzein(E40K)) [Brazzein E40K]	3.3	150 μg/100 ml	6,600	maintained their thermal stabilities	
minor-type brazzein: wild-type minor type of brazzein, 53 amino acid residues without pyroglutamic acid at the amino-terminal region (DKCKKVYENYPVSKCQLANQCNYDCKLRKHARSGECFYDEKRNLQCICDYCEY; ends and bridges not checked; cysteine pairing not given here) [reference compound]		500 μg/100 ml	2000		Sweetness relative to the major type of brazzein (sweetness; Assadi-Porter et al. 2000): approximately twice
C=C1C[C@@]23CC[C@H]4[C@@](C)(CCC[C@@]4(C)C(=O)O[C@@H]4O[C@H](CO)[C@@H](O)[C@H](O)[C@H]4O)[C@@H]2CC[C@]1(O[C@@H]1O[C@H](CO)[C@@H](O)[C@H](O)[C@H]1O[C@@H]1O[C@H](CO)[C@@H](O)[C@H](O)[C@H]1O)C3 [stevioside]					Sweetness relative to sugar (sucrose) (sweetness): 200 times
H30R: primary brazzein variant: His at position 30 of minor-type brazzein substituted with Arg (DKCKKVYENYPVSKCQLANQCNYDCKLRKRARSGECFYDEKRNLQCICDYCEY; Brazzein(H30R)) [Brazzein H30R]	3.3	150 μg/100 ml	6,600	maintained their thermal stabilities	
K5A: primary brazzein variant: Lys at position 5 of minor-type brazzein substituted with Ala (DKCKAVYENYPVSKCQLANQCNYDCKLRKHARSGECFYDEKRNLQCICDYCEY; Brazzein(K5A)) [Brazzein K5A]	0.08	6,000 μg/100 ml	167		
R32K: primary brazzein variant: Arg at position 32 of minor-type brazzein substituted with Lys (DKCKKVYENYPVSKCQLANQCNYDCKLRKHAKSGECFYDEKRNLQCICDYCEY; Brazzein(R32K)) [Brazzein R32K]	0.16	3,000 μg/100 ml	334		
H30A: primary brazzein variant: His at position 30 of minor-type brazzein substituted with Ala (DKCKKVYENYPVSKCQLANQCNYDCKLRKAARSGECFYDEKRNLQCICDYCEY; Brazzein(H30A)) [Brazzein H30A]	0.08	6,000 μg/100 ml	167		
E40H: primary brazzein variant: Glu at position 40 of minor-type brazzein substituted with His (DKCKKVYENYPVSKCQLANQCNYDCKLRKHARSGECFYDHKRNLQCICDYCEY; Brazzein(E40H)) [Brazzein E40H]	2	250 μg/100 ml	4,000		
H30R_E40D: secondary brazzein variant of minor-type brazzein with substitutions H30R and E40D (DKCKKVYENYPVSKCQLANQCNYDCKLRKRAKSGECFYDDKRNLQCICDYCEY; Brazzein(H30R_E40D)) [Brazzein H30R_E40D]					Multiples of increased sweetness to minor-type brazzein (human sense of taste; brazzein multi-variants): 4; Sweetness ratios of sucrose (1 g/100 ml) to brazzein multi-variants (human sense of taste): 8,000
O=C1NS(=O)(=O)c2ccccc21 [saccharin]					Sweetness relative to sugar (sucrose) (sweetness): approximately 500 times
H30R_E40A: secondary brazzein variant of minor-type brazzein with substitutions H30R and E40A (DKCKKVYENYPVSKCQLANQCNYDCKLRKRAKSGECFYDAKRNLQCICDYCEY; Brazzein(H30R_E40A)) [Brazzein H30R_E40A]					Multiples of increased sweetness to minor-type brazzein (human sense of taste; brazzein multi-variants): 4; Sweetness ratios of sucrose (1 g/100 ml) to brazzein multi-variants (human sense of taste): 8,000
K29A: primary brazzein variant: Lys at position 29 of minor-type brazzein substituted with Ala (DKCKKVYENYPVSKCQLANQCNYDCKLRAHARSGECFYDEKRNLQCICDYCEY; Brazzein(K29A)) [Brazzein K29A]	0.05	10,000 μg/100 ml	100		
